Test results from publication PMC9578396, “Intrinsic Antibacterial Activity of Xeruborbactam In Vitro: Assessing Spectrum and Mode of Action” (Antimicrobial Agents and Chemotherapy, 2022).
Like-named read-outs stand apart in the source and are kept apart here.

Experiments:
Type in all cases: cell-based
[1] = test system: Pseudomonas aeruginosa; experiment: Broth microdilution MIC (CLSI), Pseudomonas aeruginosa
From the text: (§1) (i) Panels of engineered bacterial strains containing various combinations of porin and efflux mutations were used. The construction of all the strains used in the study is described in detail in references, [44], and [45]. (ii) KPC-producing clinical isolates and their derivatives that lost KPC plasmids were used also. These strains and their origins are described in the Table S2. (iii) Finally, KPC-producing clinical isolates enriched in strains with porin mutations were used. The mutations identified include various deletions, insertions, nonsense mutations, and decreased expression. Most of the isolates were obtained from JMI Laboratories or International Health Management Associates (IHMA); they were collected in the course of global surveillance studies.
(§2) Bacterial isolates were subjected to broth microdilution susceptibility testing, performed according to Clinical and Laboratory Standards Institute (CLSI) methods ([46]), using panels prepared in-house. […] Xeruborbactam was synthesized at Qpex Biopharma, San Diego, CA. Avibactam was purchased from eNovation Chemicals LLC, Bridgewater, NJ, USA; zidebactam was from MedKoo Biosciences, Inc., Morrisville, NC, and nacubactam was from Advanced ChemBlocks, Hayward, CA. Durlobactam was synthesized at Acme Bioscience, Palo Alto, CA, USA.

[2] = test system: Acinetobacter baumannii; experiment: Broth microdilution MIC (CLSI), Acinetobacter baumannii; details: Acinetobacter baumannii, read-out: MIC
From the text: as §1, §2

[3] = test system: Klebsiella pneumoniae; experiment: microbe, parasite or virus in culture; details: for MIC90: read-out: MIC90
From the text: as §1, §2

[4] = PAM1154 (oprM::Hg), xeruborbactam 0 µg/ml
[5] = Klebsiella pneumoniae, KPC-producing clinical strains with functional OmpK36, alone
[6] = Klebsiella pneumoniae, KPC-producing clinical strains with nonfunctional OmpK36, alone
[7] = Klebsiella pneumoniae, KPC-producing clinical strains, all strains (n = 141), alone

Compound `CCN1CCN(C(=O)N[C@@H](C(=O)N[C@@H]2C(=O)N3[C@@H]2SC(C)(C)[C@@H]3C(=O)O)c2ccccc2)C(=O)C1=O` [Piperacillin] has an MIC [1, 4] of 0.5 µg/mL, an MIC ([1]; PAM1154, xeruborbactam 2 µg/ml) of 0.125 µg/mL and an MIC ([1]; PAM1154, xeruborbactam 4 µg/ml) of 0.125 µg/mL. It also gave an MIC ([1]; PAM1154, xeruborbactam 8 µg/ml) of 0.06 µg/mL.

Compound `CC1(C)[C@H](C(=O)O)N2C(=O)C[C@H]2S1(=O)=O` [Sulbactam] has an MIC ([2]; AB1007 (no beta-lactamase), xeruborbactam 0 µg/ml) of 2 µg/mL, an MIC ([2]; AB1007, xeruborbactam 2 µg/ml) of 2 µg/mL and an MIC ([2]; AB1007, xeruborbactam 4 µg/ml) of 2 µg/mL. For the same compound, the MIC ([2]; AB1007, xeruborbactam 8 µg/ml) was 0.25 µg/mL.

For `C[C@@H](O)[C@H]1C(=O)N2C(C(=O)O)=C(SC3CN(C4=NCCS4)C3)[C@H](C)[C@H]12` [Tebipenem], the MIC ([3]; KPM1026a (no beta-lactamase), xeruborbactam 0 µg/ml) was 0.03 µg/mL, the MIC ([3]; KPM1026a, xeruborbactam 2 µg/ml) was 0.03 µg/mL and the MIC ([3]; KPM1026a, xeruborbactam 4 µg/ml) was 0.016 µg/mL. It also gave an MIC ([3]; KPM1026a, xeruborbactam 8 µg/ml) of 0.004 µg/mL.

With `O=C(O)C[C@@H]1CC[C@H](NC(=O)Cc2cccs2)B(O)O1` [Vaborbactam] the “effect on beta-lactam MIC” value ([3]; KPM1026a, vaborbactam up to 64 μg/mL, data not shown) was “no reduction”, the MIC50 [3, 5] was > 64 µg/mL and the MIC90 [3, 5] was > 64 µg/mL. The MIC50 [3, 6] was > 64 µg/mL, the MIC90 [3, 6] was > 64 µg/mL and the MIC50 [3, 7] was > 64 µg/mL. The MIC90 [3, 7] was > 64 µg/mL, the MIC ([3]; Klebsiella pneumoniae, KPM1271 (KPC-3; wild type), alone, read-out: MIC) was > 128 µg/mL and the MIC ([3]; Klebsiella pneumoniae, KPM1272 (KPC-3; ramR_fs), alone, read-out: MIC) was > 128 µg/mL. For the same compound, the MIC ([3]; Klebsiella pneumoniae, KPM1273 (KPC-3; ramR_fs ompK36_1171), alone, read-out: MIC) was > 128 µg/mL, the MIC ([3]; Klebsiella pneumoniae, KPM2067 (KPC-3; ompK36_fs), alone, read-out: MIC) was > 128 µg/mL and the MIC ([3]; Klebsiella pneumoniae, KPM2601 (KPC-3; ΔompK35), alone) was > 128 µg/mL. For the same compound, the MIC ([3]; Klebsiella pneumoniae, KPM2631 (KPC-3; ompK36_fs ΔompK35), alone) was > 128 µg/mL.

`Cn1c(N)c(NC(=O)NCCN)c[n+]1CC1=C(C(=O)O)N2C(=O)[C@@H](NC(=O)/C(=N\OC(C)(C)C(=O)[O-])c3nsc(N)n3)[C@H]2SC1` [ceftolozane] was tested, and the MIC [1, 4] was 0.5 µg/mL, the MIC ([1]; PAM1154, xeruborbactam 2 µg/ml) was 0.25 µg/mL and the MIC ([1]; PAM1154, xeruborbactam 4 µg/ml) was 0.25 µg/mL. The MIC ([1]; PAM1154, xeruborbactam 8 µg/ml) was 0.125 µg/mL.

For `CC1=C(C(=O)O)N2C(=O)[C@@H](NC(=O)[C@H](N)c3ccccc3)[C@H]2SC1` [cephalexin], the MIC ([3]; Klebsiella pneumoniae) was 128 µg/mL.
